Source: patent US12427192B2, “Water soluble adjuvant and composition containing same” (Sumitomo Pharma Co., Ltd., priority 2019, dated 2025)

How the values were obtained:
human TLR7 = target: T1, human TLR7 (Homo sapiens, UniProt Q9NYK1); experiment: Human TLR7 reporter gene assay (TLR7/NF-κB/SEAPorter HEK293 cell line), Tests 1 and 21; type: cell-based; conditions: Test 1; TLR7/NF-κB/SEAPorter HEK293 cell line; half of maximal SEAP induction; 24-hour incubation, 0.1% DMSO; read-out: EC50
T1 construct: expresses full-length human TLR7 and secretory alkaline phosphatase (SEAP) reporter gene; host or cells: HEK293 (TLR7/NF-κB/SEAPorter)
T1 sequence (Q9NYK1 27-1049): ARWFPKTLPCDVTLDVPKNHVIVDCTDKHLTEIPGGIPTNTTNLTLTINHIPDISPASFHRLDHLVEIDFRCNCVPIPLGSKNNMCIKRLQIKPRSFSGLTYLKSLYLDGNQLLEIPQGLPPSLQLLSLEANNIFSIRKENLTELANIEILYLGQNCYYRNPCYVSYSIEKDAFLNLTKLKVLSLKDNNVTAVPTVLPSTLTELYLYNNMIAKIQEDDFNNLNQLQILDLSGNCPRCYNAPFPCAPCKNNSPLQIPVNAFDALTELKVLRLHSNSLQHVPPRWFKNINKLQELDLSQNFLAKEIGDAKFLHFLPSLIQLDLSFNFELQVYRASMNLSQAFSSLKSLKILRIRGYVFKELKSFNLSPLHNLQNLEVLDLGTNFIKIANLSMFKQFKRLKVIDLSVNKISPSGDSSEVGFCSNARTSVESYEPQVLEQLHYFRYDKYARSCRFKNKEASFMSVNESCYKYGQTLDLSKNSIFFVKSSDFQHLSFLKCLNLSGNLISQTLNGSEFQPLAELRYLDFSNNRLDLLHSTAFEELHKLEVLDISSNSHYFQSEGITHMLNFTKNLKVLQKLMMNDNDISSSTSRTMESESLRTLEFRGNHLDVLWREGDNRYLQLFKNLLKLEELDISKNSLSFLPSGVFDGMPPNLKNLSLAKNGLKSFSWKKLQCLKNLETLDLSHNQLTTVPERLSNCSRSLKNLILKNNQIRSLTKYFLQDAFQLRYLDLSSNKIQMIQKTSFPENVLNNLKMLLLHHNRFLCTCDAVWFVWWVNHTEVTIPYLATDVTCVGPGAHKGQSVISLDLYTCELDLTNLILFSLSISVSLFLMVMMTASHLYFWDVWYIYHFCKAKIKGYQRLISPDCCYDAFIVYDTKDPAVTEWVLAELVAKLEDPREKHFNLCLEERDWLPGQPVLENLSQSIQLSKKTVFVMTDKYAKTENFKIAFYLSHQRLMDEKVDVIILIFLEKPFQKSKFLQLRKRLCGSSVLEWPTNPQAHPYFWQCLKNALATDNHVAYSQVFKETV
Description: Human TLR7 Reporter Gene Assay
TLR7/NF-κB/SEAPorter™ HEK293 cell line (Imgenex Corporation) is a stably co-transfected cell line which expresses full-length human TLR7 and secretory alkaline phosphatase (SEAP) reporter gene under the transcriptional regulation of an NF-κB response element. The TLR7 expression of the cell line has been already tested by flow cytometry. Transfectants with stable expression were selected using the antibiotic blasticidin and Geneticin. TLR signaling leads to the translocation of NF-κB and the activation of the promoter results in expression of the SEAP gene. TLR7-specific activation was assessed by determining the level of SEAP produced following 24-hour incubation of the cells at 37° C. with each compound prepared in Examples and Reference examples in the presence of 0.1% (v/v) dimethylsulfoxide (DMSO). The human TLR7 activity for the present compound was assessed by human TLR7 reporter gene assay, and the results are shown in Tables 3 and 4 as the compound concentration which produced half of the maximal level of SEAP induction (EC50)
According to the method of Test 1, human TLR7 reporter gene assay was done with the following samples, and the result was shown in the table below.

mouse TLR7 = target: T2, mouse TLR7 (Mus musculus, UniProt P58681); experiment: Mouse TLR7 reporter gene assay (HEK-Blue mTLR7 cell line), Test 2; type: cell-based; conditions: half of maximal SEAP induction, 20-24-hour incubation, 0.1% DMSO
T2 construct: expresses full-length mouse TLR7 and secretory SEAP reporter gene; host or cells: HEK-Blue mTLR7 (HEK293-derived)
T2 sequence (P58681 27-1050): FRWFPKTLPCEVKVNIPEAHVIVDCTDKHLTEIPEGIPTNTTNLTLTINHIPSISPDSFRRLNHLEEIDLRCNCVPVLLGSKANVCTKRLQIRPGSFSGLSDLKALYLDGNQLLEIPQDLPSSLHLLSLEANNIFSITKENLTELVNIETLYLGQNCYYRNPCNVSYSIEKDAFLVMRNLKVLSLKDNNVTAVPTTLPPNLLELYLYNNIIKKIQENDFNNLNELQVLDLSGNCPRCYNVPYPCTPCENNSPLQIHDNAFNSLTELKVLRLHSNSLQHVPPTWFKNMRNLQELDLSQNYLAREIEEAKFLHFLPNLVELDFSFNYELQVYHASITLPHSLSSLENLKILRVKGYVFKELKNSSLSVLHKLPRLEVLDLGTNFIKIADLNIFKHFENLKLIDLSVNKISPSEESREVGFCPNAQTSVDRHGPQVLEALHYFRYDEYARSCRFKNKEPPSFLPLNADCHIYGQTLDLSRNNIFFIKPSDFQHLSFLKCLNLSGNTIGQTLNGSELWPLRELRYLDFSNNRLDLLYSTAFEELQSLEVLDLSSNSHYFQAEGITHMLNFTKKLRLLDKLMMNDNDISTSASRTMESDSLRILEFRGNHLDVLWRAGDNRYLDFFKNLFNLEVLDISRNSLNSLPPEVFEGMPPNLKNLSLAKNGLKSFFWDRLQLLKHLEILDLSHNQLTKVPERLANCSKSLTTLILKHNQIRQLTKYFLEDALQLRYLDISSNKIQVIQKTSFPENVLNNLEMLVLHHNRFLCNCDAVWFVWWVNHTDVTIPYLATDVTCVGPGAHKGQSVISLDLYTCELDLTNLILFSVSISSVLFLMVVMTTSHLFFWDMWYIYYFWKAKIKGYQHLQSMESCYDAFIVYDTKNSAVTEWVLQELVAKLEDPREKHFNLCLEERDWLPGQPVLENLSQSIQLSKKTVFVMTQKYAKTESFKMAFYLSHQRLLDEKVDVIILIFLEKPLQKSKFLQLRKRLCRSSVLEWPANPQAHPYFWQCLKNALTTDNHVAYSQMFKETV
Description: Test 2 Mouse TLR7 Reporter Gene Assay
HEK-Blue™ mTLR7 cell line (Invivogen) is a stably co-transfected cell line which expresses full-length mouse TLR7 and secretory SEAP reporter gene under the transcriptional regulation of an NF-κB response element. The TLR7 expression of the cell line has been already tested by RT-PCR. Transfectants with stable expression were selected using the antibiotic blasticidin and Zeocin. TLR signaling leads to the translocation of NF-κB and the activation of the promoter results in expression of the SEAP gene. TLR7-specific activation was assessed by determining the level of SEAP produced following 20-24-hour incubation of the cells at 37° C. with each compound prepared in Examples and Reference examples in the presence of 0.1% (v/v) DMSO. The mouse TLR7 activity for the present compound was assessed by mouse TLR7 reporter gene assay, and the results are shown in Tables 5 and 6 as the compound concentration which produced half of the maximal level of SEAP induction (EC50).

| EC50 (human TLR7) | EC50 (mouse TLR7) | Compound |
| --- | --- | --- |
| 68 nM | 28 nM | CCCCCNc1nc(N)nc(C)c1Cc1ccc(CN(C)CCOCCOCCOCCOCCO)cc1OC [Example 1, 1-(4-{[2-amino-4-methyl-6-(pentylamino)pyrimidin-5-yl]methyl}-3-methoxyphenyl)-2-methyl-5,8,11,14-tetraoxa-2-azahexadecan-16-ol·trifluoroacetate] |
| 50 nM | 15 nM | CCCCCNc1nc(N)nc(C)c1Cc1ccc(CNC)cc1OC [Reference example 12, 5-({2-methoxy-4-[(methylamino)methyl]phenyl}methyl)-6-methyl-N^4-pentylpyrimidine-2,4-diamine, reference compound] |
